{
  "source": "paper PMC11425263",
  "about": "“Otilonium Bromide Exhibits Potent Antifungal Effects by Blocking Ergosterol Plasma Membrane Localization and Triggering Cytotoxic Autophagy in Candida Albicans” (Advanced Science, 2024)",
  "molecular_target": "T1, Sec31 (Candida albicans, UniProt Q5AAU3)",
  "T1 construct": "gene PGA63; full-length with N-terminal GFP tag, expressed in C. albicans, tested in whole cell lysate; COPII coat component",
  "T1 sequence (Q5AAU3 1-1265)": "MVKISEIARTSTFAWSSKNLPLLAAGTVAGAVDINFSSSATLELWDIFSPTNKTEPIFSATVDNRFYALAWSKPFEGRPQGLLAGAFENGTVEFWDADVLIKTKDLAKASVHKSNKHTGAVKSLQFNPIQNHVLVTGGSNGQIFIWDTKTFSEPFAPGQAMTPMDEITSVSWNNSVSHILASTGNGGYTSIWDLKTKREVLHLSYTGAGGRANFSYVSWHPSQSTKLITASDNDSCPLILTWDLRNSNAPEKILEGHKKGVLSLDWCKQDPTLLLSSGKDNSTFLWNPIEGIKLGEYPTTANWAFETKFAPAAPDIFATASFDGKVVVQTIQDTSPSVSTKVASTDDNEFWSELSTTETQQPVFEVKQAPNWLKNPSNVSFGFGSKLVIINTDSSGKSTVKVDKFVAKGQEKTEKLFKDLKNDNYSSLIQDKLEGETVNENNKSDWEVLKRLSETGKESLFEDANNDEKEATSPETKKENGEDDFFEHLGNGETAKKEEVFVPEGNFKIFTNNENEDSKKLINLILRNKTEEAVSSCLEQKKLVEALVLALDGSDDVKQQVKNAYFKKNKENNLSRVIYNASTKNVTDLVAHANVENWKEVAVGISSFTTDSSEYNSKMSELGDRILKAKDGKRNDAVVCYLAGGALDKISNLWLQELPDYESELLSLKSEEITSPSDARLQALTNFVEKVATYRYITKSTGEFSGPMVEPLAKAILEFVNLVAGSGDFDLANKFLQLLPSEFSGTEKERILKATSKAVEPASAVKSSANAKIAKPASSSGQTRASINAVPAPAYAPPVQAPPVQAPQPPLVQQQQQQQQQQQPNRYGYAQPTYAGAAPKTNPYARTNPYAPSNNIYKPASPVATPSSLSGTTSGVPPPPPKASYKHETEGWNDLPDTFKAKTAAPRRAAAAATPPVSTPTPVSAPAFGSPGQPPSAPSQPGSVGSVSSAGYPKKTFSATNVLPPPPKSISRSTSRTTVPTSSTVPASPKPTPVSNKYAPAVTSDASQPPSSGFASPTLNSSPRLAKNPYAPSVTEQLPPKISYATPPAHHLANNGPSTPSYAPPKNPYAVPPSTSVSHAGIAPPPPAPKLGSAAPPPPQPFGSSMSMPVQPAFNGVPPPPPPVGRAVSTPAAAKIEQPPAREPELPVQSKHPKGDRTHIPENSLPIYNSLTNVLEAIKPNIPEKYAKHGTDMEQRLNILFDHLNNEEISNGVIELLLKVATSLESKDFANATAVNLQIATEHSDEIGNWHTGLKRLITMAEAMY",
  "assay": "DARTS, thermolysin protection, anti-GFP western blot",
  "assay_type": "biochemical",
  "settings": "GFP-Sec31 cell lysate; OTB 3.125 to 12.5 µg/mL, 1 h room temperature; thermolysin 15 min; beta-tubulin as control",
  "data": [
    {"smiles": "CCCCCCCCOc1ccccc1C(=O)Nc1ccc(C(=O)OCC[N+](C)(CC)CC)cc1", "note": "[otilonium bromide]", "values": [
      {"measurement": "DARTS, thermolysin protection, anti-GFP western blot", "value": "OTB effectively shielded Sec31 from degradation induced by thermolysin"}
    ]}
  ]
}
